How the values were obtained:
[1] = biological target: BCL-2 (binding to BAD peptide) (Homo sapiens, UniProt P10415); assay: SPR (Biacore) solution inhibition assay, BCL-2 binding to immobilized BAD peptide; settings: biotinylated BAD peptide surface, 56 nM BCL-2, 25° C.; range = high and low IC50 values from multiple experiments; read-out: BCL2_SPR IC50 BAD
Text: (§1) The present method includes utility of a Surface plasmon resonance (SPR)-based biosensor (Biacore™′ GE Healthcare, Uppsala, Sweden) to characterize BCL-2 inhibitors.
(§2) Biacore™ utilizes the phenomenon of surface plasmon resonance (SPR) to detect and measure binding interactions. In a typical Biacore experiment, one of the interacting molecules (ligand) is immobilized on a flexible dextran matrix while the interacting partner (analyte) is allowed to flow across that surface. A binding interaction results in an increase in mass on the sensor surface and a corresponding direct change in the refractive index of the medium in the vicinity of the sensor surface. Changes in refractive index or signal are recorded in resonance units (R.U.) Signal changes due to association and dissociation of complexes are monitored in a non-invasive manner, continuously and in real-time, the results of which are reported in the form of a sensorgram.
(§3) The SPR assay is configured to examine solution inhibition of BCL-2 binding to peptide derivatized sensor surfaces to generate IC50 values as a measure of inhibitor potency.
(§4) Biacore™ A100 (GE Healthcare, Uppsala, Sweden) was used to conduct all experiments reported herein. Sensor surface preparation and all interaction analyses experiments were performed at 25° C. Reagents were purchased from GE Healthcare. Running buffer containing 10 mM Hepes, pH7.4, 150 mM sodium chloride, 1.25 mM Dithiothreitol, 3% Dimethyl sulfoxide and 0.05% polysorbate 20 were utilized throughout all analyses.
(§5) Biotinylated BAK, BAD and NOXA peptides were diluted to 10 nM in running buffer and captured onto a sensor surface pre-derivatized with streptavidin (sensor chip SA) to peptide surface densities in the range 50-100 R.U. Peptide captured surfaces were blocked with 500 μM PEO2-Biotin.
(§6) Interaction analyses were performed by first equilibrating each sample within a 6 point three fold compound dilution series in the range 16 μM to […] with 56 nM BCL-2 for one hour during instrument start-up procedures. Protein compound mixtures were then injected over each peptide surface in parallel for 60 seconds at a flow-rate of 30 μL/min. 56 nM BCL-2 control samples were also prepared and run at regular intervals during the assay. Surface regeneration was performed at the end of each analysis cycle by two 30 second injections of 10 mM Glycine, pH 2.5, 1M Sodium Chloride, 0.05% polysorbate 20. Samples and control compound samples were run in duplicate and controls are also run at regular intervals during the assay to monitor surface and assay performance.
(§7) Data analyses are carried out using Biacore™ A100 evaluation software v1.1 to validate assay quality. Binding level report points were used relative to BCL-2 control samples to calculate % inhibition values for each compound protein mixture. […] The range of data shown in table 1 represents the high and low IC50 values obtained from multiple experiments.

[2] = biological target: BCL-2 (binding to BAK peptide) (Homo sapiens, UniProt P10415); assay: SPR (Biacore) solution inhibition assay, BCL-2 binding to immobilized BAK peptide; settings: biotinylated BAK peptide surface, 56 nM BCL-2, 25° C.; range = high and low IC50 values from multiple experiments; read-out: BCL2_SPR IC50 BAK
Chain of BCL-2 (binding to BAK peptide) (P10415 whole entry): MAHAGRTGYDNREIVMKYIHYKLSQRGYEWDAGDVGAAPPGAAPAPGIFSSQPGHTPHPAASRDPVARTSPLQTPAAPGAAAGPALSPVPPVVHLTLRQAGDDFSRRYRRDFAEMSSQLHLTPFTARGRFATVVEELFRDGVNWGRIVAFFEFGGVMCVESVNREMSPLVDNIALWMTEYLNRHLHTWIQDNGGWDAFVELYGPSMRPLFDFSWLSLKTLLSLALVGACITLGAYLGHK
Text: as §1, §2, §3, §4, §5, §6, §7

Chain of BCL-2 (binding to BAD peptide) (P10415 whole entry): as above

SMILES	IC50 [1] [nM]	IC50 [2] [nM]
CCCCN(CCCC)C(=O)c1cc(C)n(-c2ccc(NC(=O)CCc3c[nH]c4c(Cl)cccc34)cc2C(=O)N2Cc3ccccc3C[C@H]2CO)n1 [Example 124]	254 to 260	215 to 235
CCCCN(CCCC)C(=O)c1cc(C)n(-c2ccc(NC(=O)c3ccc(SC(F)(F)F)cc3)cc2C(=O)N2Cc3ccccc3C[C@H]2CO)n1 [Example 154]	5790 to 6250	2380 to 4330
CCCCN(CCCC)C(=O)c1cc(C)n(-c2ccc(NC(=O)C(CC(=O)N(C)C)c3ccccc3)cc2C(=O)N2Cc3ccccc3C[C@H]2CO)n1 (stereo partly shown) [Example 99]	130 to 171	111 to 144
CCCCN(CCCC)C(=O)c1cc(C)n(-c2ccc(NC(=O)C(Cc3ccccc3)C(=O)O)cc2C(=O)N2Cc3ccccc3C[C@H]2CO)n1 (stereo partly shown) [Example 34]	67.6 to 67.8	63.4 to 72.2
CCCCN(CCCC)C(=O)c1cc(C)n(-c2ccc(NC(=O)Oc3ccccc3)cc2C(=O)N2Cc3ccccc3C[C@H]2CO)n1 [Example 10]	501 to 522	283 to 308
CCCCN(CCCC)C(=O)c1cc(C)n(-c2ccc(NC(=O)c3ccc4c(c3)N=S=N4)cc2C(=O)N2Cc3ccccc3C[C@H]2CO)n1 [Example 84]	1020 to 1040	862 to 957
CCCCN(CCCC)C(=O)c1cc(C)n(-c2ccc(NC(=O)COc3ccc(OCc4ccccc4)cc3)cc2C(=O)N2Cc3ccccc3C[C@H]2CO)n1 [Example 20]	1220 to 1810	1220 to 2070
CCCCN(CCCC)C(=O)c1cc(C)n(-c2ccc(NC(=O)C(CC(=O)N3CCCC3)c3ccccc3)cc2C(=O)N2Cc3ccccc3C[C@H]2CO)n1 (stereo partly shown) [Example 27]	61.9 to 66.8	58.5 to 70.9
CCCCN(CCCC)C(=O)c1cc(C)n(-c2ccc(NC(=O)Cc3ccc(OC)cc3)cc2C(=O)N2Cc3ccccc3C[C@H]2CO)n1 [Example 77]	65.8 to 71	55.8 to 64.3
CCCCN(CCCC)C(=O)c1cc(C)n(-c2ccc(NC(=O)c3n[nH]c4c3CCC4)cc2C(=O)N2Cc3ccccc3C[C@H]2CO)n1 [Example 112]	964 to 1030	696 to 875
CCCCN(CCCC)C(=O)c1cc(C)n(-c2ccc(NC(=O)COc3ccc(Cl)cc3)cc2C(=O)N2Cc3ccccc3C[C@H]2CO)n1 [Example 7]	198	142 to 161
CCCCN(CCCC)C(=O)c1cc(C)n(-c2ccc(NC(=O)CC(C)S(=O)(=O)c3ccc(Cl)cc3)cc2C(=O)N2Cc3ccccc3C[C@H]2CO)n1 (stereo partly shown) [Example 90]	156 to 210	159 to 187
CCCCN(CCCC)C(=O)c1cc(C)n(-c2ccc(NC(=O)CC(=O)O)cc2C(=O)N2Cc3ccccc3C[C@H]2CO)n1 [Example 19]	363 to 365	241 to 251
CCCCN(CCCC)C(=O)c1cc(C)n(-c2ccc(NC(=O)Cc3cccc(Br)c3)cc2C(=O)N2Cc3ccccc3C[C@H]2CO)n1 [Example 138]	56.1 to 60.8	43.8 to 53
CCCCN(CCCC)C(=O)c1cc(C)n(-c2ccc(NC(=O)c3ccc4c(c3)nnn4C(C)C)cc2C(=O)N2Cc3ccccc3C[C@H]2CO)n1 [Example 147]	306 to 381	298 to 315
CCCCN(CCCC)C(=O)c1cc(C)n(-c2ccc(NC(=O)COc3cccnc3)cc2C(=O)N2Cc3ccccc3C[C@H]2CO)n1 [Example 32]	234 to 245	203 to 205
CCCCN(CCCC)C(=O)c1cc(C)n(-c2ccc(NC(=O)CCC(=O)O)cc2C(=O)N2Cc3ccccc3C[C@H]2CO)n1 [Example 17]	216 to 250	153 to 175
CCCCN(CCCC)C(=O)c1cc(C)n(-c2ccc(NC(=O)[C@@H](C)c3ccccc3)cc2C(=O)N2Cc3ccccc3C[C@H]2CO)n1 [Example 52]	84.2 to 88.5	75.5 to 79.1
CCCCN(CCCC)C(=O)c1cc(C)n(-c2ccc(NC(=O)OCC)cc2C(=O)N2Cc3ccccc3C[C@H]2CO)n1 [Example 11]	591 to 599	550 to 557
CCCCN(CCCC)C(=O)c1cc(C)n(-c2ccc(NC(=O)COc3ccccc3)cc2C(=O)N2Cc3ccccc3C[C@H]2CO)n1 [Example 4]	78.7 to 97.4	83.8 to 109

Reference: patent publication US20140357633A1, “COMPOUNDS FOR INHIBITING THE INTERACTION OF BCL2 WITH BINDING PARTNERS” (NOVARTIS AG, priority 2011, published 2014)
